The values that follow come from patent US20240207302A1, “ANTIVIRAL COMPOUNDS, METHODS FOR THE MANUFACTURING OF COMPOUNDS, ANTIVIRAL PHARMACEUTICAL COMPOSITION, USE OF THE COMPOUNDS AND METHOD FOR THE ORAL TREATMENT OF CORONAVIRUS INFECTION AND RELATED DISEASES THEREOF” (priority 2021, published 2024).

Series [1] concerns SARS-COV-2. Briefly: SARS-COV-2 viral RNA synthesis in Vero cells (real time RT-PCR). The class given is cell-based. On the technique in general: Quantitative PCR measures a nucleic acid by following its amplification.
The test system of series [2] is SARS-COV-2. Briefly: SARS-COV-2 viral RNA synthesis in HuH-7 cells (real time RT-PCR). The class given is cell-based.
Series [3] in a line: Cytotoxicity assay (XTT) in Vero cells. The class given is cell-based. As to conditions: African green monkey. The procedure:
(§1) In parallel, cytotoxicity assays were performed.
In general terms: Formazan colour is commonly taken as a measure of viable cells.

The nature of series [4]: Cytotoxicity assay (XTT) in Huh-7 cells. The format is cell-based. Particulars: human.
Method: In parallel, cytotoxicity assays were performed. Monolayers of 1.5×10^4 cells in 96-well plates were treated for 3 days with various concentrations (semi-log dilutions from 1,000 to 10 μM) of the antiviral drugs. Then, 5 mg/mL 2,3-bis-(2-methoxy-4-nitro-5-sulfophenyl)-2H-tetrazolium-5-carboxanilide (XTT) in DMEM was added to the cells in the presence of 0.01% of N-methyl dibenzopyrazine methyl sulfate (PMS).
A short description of series [5]: Cytotoxicity assay (XTT) in Calu-3 cells. The format is cell-based, human. As to conditions: human, Calu-3, single moment treatment. The method, then:
as §1

Series [6] concerns SARS-COV-2. The series can be described thus: SARS-COV-2 RNA loads in human primary monocytes. The class given is cell-based. Particulars: 24 h. The procedure:
FIG. 5A, 5B and 5C. The compounds impair SARS-COV-2 RNA synthesis and SARS-COV-2-induced release of inflammatory mediators in human primary monocytes.
Human primary monocytes were obtained after 3 h of plastic adherence of peripheral blood mononuclear cells (PBMCs). PBMCs were isolated from healthy donors by density gradient centrifugation (Ficoll-Paque, GE Healthcare). PBMCs (2.0×10^6 cells) were plated onto 48-well plates (NalgeNunc) in RPMI-1640 without serum for 2 to 4 h. Non-adherent cells were removed, and the remaining monocytes were maintained in DMEM with 5% human serum (HS; Millipore) and penicillin/streptomycin. Monocytes were infected at MOI of 0.1. After 1 h inoculation period, cells were washed with phosphate saline buffer (PBS) to remove unbounded viruses and treated with 1 μM of the indicated compounds. After 24 h after infection, cell monolayers werc lysed total viral RNA was extracted, quantitative RT-PCR was performed, to detect the SARS-COV-2 and the housekeeping gene RNAse P.

The test system of series [7] is SARS-COV-2. Briefly: Combination with SARS-COV-2 nsp14 (exonuclease) inhibitors in Calu-3 cells, infectious virus titers. The class given is cell-based. Particulars: calu-3; drug 10 μM, raltegravir or dolutegravir 5 μM.
Series [8] concerns SARS-COV-2.
Setting [9] is: Severe acute respiratory syndrome coronavirus 2, Calu-3, 72 h, Calu-3 (MOI 0.5 72 h), single moment treatment.

Where two headings read alike, the source gives them in different places.

`C/C(=C\CNc1ncnc2c1ncn2[C@@H]1O[C@H](CO)[C@@H](O)[C@H]1O)CO` [MB-804, zeatin riboside]: the EC50 (in general, the concentration needed to bring the measured effect to its halfway point) in series [1] (Severe acute respiratory syndrome coronavirus 2, Vero (MOI 0.01 24 h), read-out: EC50) was 1.4 µM; in series [2] (Severe acute respiratory syndrome coronavirus 2, Huh-7 (MOI 0.1 48 h), read-out: EC50), 7.2 µM; in series [8] (setting [9]) it was 1.2 µM. The SI in series [1] (Vero, CC50/EC50) is reported as 454; in series [2] (Huh-7, CC50/EC50), 78; in series [8] (Calu-3, single moment treatment, CC50/EC50), 500. The results for the CC50 at 3 days in series [3], in series [4] and in series [5] were 636 µM, 550 µM and 580 µM, respectively. In series [6], the “viral RNA levels/cell” value is reported as “reduced”. Moreover, the “effect of co-treatment with raltegravir or dolutegravir (iEXO) on inhibition of SARS-COV-2” value in series [7] is recorded as “synergistic”. In addition, the EC90 (commonly the concentration needed for an effect of 90%) in series [8] (setting [9]) came out at 9.1 µM.
